Key:
[1] = biological target: Mu-type opioid receptor (Homo sapiens) (UniProt P35372); assay: Intrinsic activity at human mu opioid receptor expressed in CHOK1 cell membranes at 0.00001 to 20 uM after 30 mins by GTP-Eu nucleotide exchange assay relative to DAMGO; type: functional; settings: CHO-K1
[2] = biological target: Kappa-type opioid receptor (Cavia porcellus, UniProt P41144); assay: Displacement of [3H]-diprenorphine from guinea pig kappa opioid receptor expressed in CHOK1 cell membranes; settings: cho-k1
Sequence of Kappa-type opioid receptor (P41144 whole entry): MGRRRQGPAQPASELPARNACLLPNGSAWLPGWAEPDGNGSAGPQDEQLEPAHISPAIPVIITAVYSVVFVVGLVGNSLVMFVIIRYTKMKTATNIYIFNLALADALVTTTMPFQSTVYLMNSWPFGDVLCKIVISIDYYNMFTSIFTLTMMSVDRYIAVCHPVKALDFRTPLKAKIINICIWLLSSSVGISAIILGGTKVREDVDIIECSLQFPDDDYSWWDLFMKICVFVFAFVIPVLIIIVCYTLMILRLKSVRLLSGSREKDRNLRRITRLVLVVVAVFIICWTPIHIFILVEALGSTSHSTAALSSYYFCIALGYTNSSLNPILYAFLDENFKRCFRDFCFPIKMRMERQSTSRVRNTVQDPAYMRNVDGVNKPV

[3] = biological target: Delta-type opioid receptor (Homo sapiens, UniProt P41143); assay: Displacement of [3H]-diprenorphine from human delta opioid receptor expressed in cell membranes
Sequence of Delta-type opioid receptor (P41143 whole entry): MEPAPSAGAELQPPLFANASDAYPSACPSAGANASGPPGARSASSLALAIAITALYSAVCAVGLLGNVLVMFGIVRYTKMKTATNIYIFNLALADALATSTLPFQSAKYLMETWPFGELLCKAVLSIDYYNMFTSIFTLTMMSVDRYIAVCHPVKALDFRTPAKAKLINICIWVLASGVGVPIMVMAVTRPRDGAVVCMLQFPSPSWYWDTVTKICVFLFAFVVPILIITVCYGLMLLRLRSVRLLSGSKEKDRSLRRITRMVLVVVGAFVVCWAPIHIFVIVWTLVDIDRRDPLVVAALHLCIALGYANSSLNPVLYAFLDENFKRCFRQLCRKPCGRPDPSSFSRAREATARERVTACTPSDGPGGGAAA

Sequence of Mu-type opioid receptor (Homo sapiens) (P35372 whole entry): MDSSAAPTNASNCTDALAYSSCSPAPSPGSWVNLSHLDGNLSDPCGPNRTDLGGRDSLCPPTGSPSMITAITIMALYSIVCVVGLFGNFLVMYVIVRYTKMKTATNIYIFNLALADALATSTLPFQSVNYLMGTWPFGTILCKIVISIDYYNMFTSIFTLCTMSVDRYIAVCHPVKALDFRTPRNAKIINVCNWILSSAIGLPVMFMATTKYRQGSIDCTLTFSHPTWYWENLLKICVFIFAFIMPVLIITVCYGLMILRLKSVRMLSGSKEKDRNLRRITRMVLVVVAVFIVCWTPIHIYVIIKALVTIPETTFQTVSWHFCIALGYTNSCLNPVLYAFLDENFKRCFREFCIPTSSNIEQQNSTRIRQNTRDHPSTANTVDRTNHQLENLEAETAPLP

Row | Structure (SMILES) | Intrinsic activity [1] [%] | pKi [2] | pKi [3]
1 | CC(O)C(O)C(=O)N(CCCN1[C@@H]2CC[C@H]1C[C@@H](c1cccc(C(N)=O)c1)C2)Cc1ccccc1 (some centres not stated) | < 40 | – | –
2 | NC(=O)c1cccc([C@H]2C[C@H]3CC[C@@H](C2)N3CCCN(Cc2ccccc2)C(=O)[C@H](O)CO)c1.O=C(O)C(F)(F)F | < 40 | 7 to 10.5 | 7 to 10.5
3 | NC(=O)c1cccc([C@H]2C[C@H]3CC[C@@H](C2)N3CCN(CC2CCC2)C(=O)[C@H](O)CO)c1.O=C(O)C(F)(F)F | < 40 | 7 to 10.5 | 7 to 10.5
4 | C[C@H](O)C(=O)N(CCN1[C@@H]2CC[C@H]1C[C@@H](c1cccc(C(N)=O)c1)C2)CC1CCC(F)(F)CC1.O=C(O)C(F)(F)F | < 40 | 7 to 10.5 | 7 to 10.5
5 | CC(C)(CO)C(=O)N(CCN1[C@@H]2CC[C@H]1C[C@@H](c1cccc(C(N)=O)c1)C2)CC1CCCC1.O=C(O)C(F)(F)F | < 40 | 7 to 10.5 | 7 to 10.5
6 | CC(C)C[C@H](O)C(=O)N(CCN1[C@@H]2CC[C@H]1C[C@@H](c1cccc(C(N)=O)c1)C2)Cc1c(F)cccc1F.O=C(O)C(F)(F)F | < 40 | 7 to 10.5 | 7 to 10.5
7 | COC(=O)CCC(=O)N(CCN1[C@@H]2CC[C@H]1C[C@@H](c1cccc(O)c1)C2)CC1CCCCC1 | < 40 | 7 to 10.5 | 7 to 10.5
8 | NC(=O)c1cccc([C@H]2C[C@H]3CC[C@@H](C2)N3CCN(CC2CCCCC2)C(=O)Cc2ccccc2)c1 | < 40 | 7 to 10.5 | 7 to 10.5
9 | O=C(O)CC1(CC(=O)N(CCN2[C@@H]3CC[C@H]2C[C@@H](c2cccc(O)c2)C3)CC2CCCCC2)CCCC1 | < 40 | 7 to 10.5 | 7 to 10.5
10 | CS(=O)(=O)N(CCN1[C@@H]2CC[C@H]1C[C@@H](c1cccc(C(N)=O)c1)C2)Cc1c(F)cccc1F.O=C(O)C(F)(F)F | < 40 | 7 to 10.5 | 7 to 10.5
11 | CS(=O)(=O)CC(=O)N(CCN1[C@@H]2CC[C@H]1C[C@@H](c1cccc(C(N)=O)c1)C2)Cc1cccc(F)c1.O=C(O)C(F)(F)F | < 40 | 7 to 10.5 | 7 to 10.5
12 | NC(=O)c1cccc([C@H]2C[C@H]3CC[C@@H](C2)N3CCN(CC2CCCC2)C(=O)CCO)c1.O=C(O)C(F)(F)F | < 40 | 7 to 10.5 | 7 to 10.5
13 | CN(C)S(=O)(=O)N(CCN1[C@@H]2CC[C@H]1C[C@@H](c1cccc(C(N)=O)c1)C2)Cc1ccc(CF)cc1 | < 40 | – | –
14 | C[C@H](O)C(=O)N(CCCN1[C@@H]2CC[C@H]1C[C@@H](c1cccc(C(N)=O)c1)C2)Cc1ccccc1 | < 40 | – | –
15 | CC(C)(C)C(=O)N(CCN1[C@@H]2CC[C@H]1C[C@@H](c1cccc(C(N)=O)c1)C2)Cc1ccccc1.O=C(O)C(F)(F)F | < 40 | 7 to 10.5 | 7 to 10.5
16 | NC(=O)c1cccc([C@H]2C[C@H]3CC[C@@H](C2)N3CCCN(CC2CCCCC2)C(=O)CO)c1 | < 40 | 7 to 10.5 | 7 to 10.5
17 | CS(=O)(=O)CC(=O)N(CCCN1[C@@H]2CC[C@H]1C[C@@H](c1cccc(C(N)=O)c1)C2)Cc1ccccc1.O=C(O)C(F)(F)F | < 40 | 7 to 10.5 | 7 to 10.5
18 | CN(C)CC[C@H](O)C(=O)N(CCN1[C@@H]2CC[C@H]1C[C@@H](c1cccc(C(N)=O)c1)C2)CC1CCCCC1 | < 40 | 7 to 10.5 | 7 to 10.5
19 | CC1CCC(CN(CCN2[C@@H]3CC[C@H]2C[C@@H](c2cccc(C(N)=O)c2)C3)C(=O)CS(C)(=O)=O)CC1 (some centres not stated) | < 40 | – | –
20 | CCC(=O)N(CCN1[C@@H]2CC[C@H]1C[C@@H](c1cccc(O)c1)C2)CC1CCCCC1 | < 40 | 7 to 10.5 | 7 to 10.5
21 | O=C(CO)N(CCN1[C@@H]2CC[C@H]1C[C@@H](c1cccc(O)c1)C2)Cc1ccc(C(F)(F)F)cc1 | < 40 | 7 to 10.5 | 7 to 10.5

Row | Structure (SMILES) | Intrinsic activity [1] [%] | pKi [2] | pKi [3]
22 | CS(=O)(=O)CC(=O)N(CCN1[C@@H]2CC[C@H]1C[C@@H](c1cccc(C(N)=O)c1)C2)Cc1ccc(F)cc1.O=C(O)C(F)(F)F | < 40 | 7 to 10.5 | 7 to 10.5
23 | CN(C)[C@@H](Cc1ccccc1)C(=O)N(CCN1[C@@H]2CC[C@H]1C[C@@H](c1cccc(O)c1)C2)CC1CCCCC1 | < 40 | 7 to 10.5 | 7 to 10.5
24 | CC(CO)(CO)C(=O)N(CCN1[C@@H]2CC[C@H]1C[C@@H](c1cccc(C(N)=O)c1)C2)CC1CCCC1.O=C(O)C(F)(F)F | < 40 | 7 to 10.5 | 7 to 10.5
25 | NC(=O)c1cccc([C@H]2C[C@H]3CC[C@@H](C2)N3CCN(CCc2cccc(F)c2)C(=O)CO)c1.O=C(O)C(F)(F)F | < 40 | 7 to 10.5 | 7 to 10.5
26 | CC(=O)N(CCN1[C@@H]2CC[C@H]1C[C@@H](c1cccc(O)c1)C2)CC12CC3CC(CC(C3)C1)C2 | < 40 | – | –
27 | O=C(O)CC(=O)N(CCN1[C@@H]2CC[C@H]1C[C@@H](c1cccc(O)c1)C2)Cc1c(F)cccc1F | < 40 | 7 to 10.5 | 7 to 10.5
28 | O=C(CO)N(CCN1[C@@H]2CC[C@H]1C[C@@H](c1cccc(O)c1)C2)Cc1ccc(Cl)cc1 | < 40 | – | –
29 | NC(=O)c1cccc([C@H]2C[C@H]3CC[C@@H](C2)N3CCN(CC23CC4CC(CC(O)(C4)C2)C3)C(=O)[C@@H](O)CO)c1 | < 40 | – | –
30 | CC(C)(C)C(=O)N(CCCN1[C@@H]2CC[C@H]1C[C@@H](c1cccc(C(N)=O)c1)C2)Cc1ccccc1 | < 40 | – | –
31 | COC(=O)CCC(=O)N(CCN1[C@@H]2CC[C@H]1C[C@@H](c1cccc(O)c1)C2)Cc1ccccc1 | < 40 | – | –
32 | NC(=O)c1cccc([C@H]2C[C@H]3CC[C@@H](C2)N3CCN(C[C@H]2CC[C@@H](O)CC2)C(=O)[C@@H](O)CO)c1 | < 40 | – | –
33 | CS(=O)(=O)CC(=O)N(CCc1ccccc1)CCN1[C@@H]2CC[C@H]1C[C@@H](c1cccc(C(N)=O)c1)C2.O=C(O)C(F)(F)F | – | 7 to 10.5 | 7 to 10.5
34 | O=C(N(CCN1[C@@H]2CC[C@H]1C[C@@H](c1cccc(O)c1)C2)CC1CCCCC1)C1(O)CC1 | < 40 | – | –
35 | O=C(O)CCC(=O)N(CCN1[C@@H]2CC[C@H]1C[C@@H](c1cccc(O)c1)C2)CC12CC3CC(CC(C3)C1)C2 | < 40 | – | –
36 | CS(=O)(=O)CC(=O)N(CCN1[C@@H]2CC[C@H]1C[C@@H](c1cccc(C(N)=O)c1)C2)CC1CCC(C(F)(F)F)CC1 (some centres not stated) | < 40 | – | –
37 | NC(=O)c1cccc([C@H]2C[C@H]3CC[C@@H](C2)N3CCN(CC23CC4CC(CC(O)(C4)C2)C3)C(=O)CO)c1 | < 40 | – | –
38 | CCC(C)NC(=O)N(CCN1[C@@H]2CC[C@H]1C[C@@H](c1cccc(O)c1)C2)CC1CCCCC1 (some centres not stated) | < 40 | – | –
39 | O=C(CCC1CCCC1)N(CCN1[C@@H]2CC[C@H]1C[C@@H](c1cccc(O)c1)C2)CC1CCCCC1 | < 40 | – | –
40 | O=C(O)C1CCCCC1C(=O)N(CCN1[C@@H]2CC[C@H]1C[C@@H](c1cccc(O)c1)C2)CC1CCCCC1 (some centres not stated) | < 40 | – | –
41 | O=C(CO)N(CCN1[C@@H]2CC[C@H]1C[C@@H](c1cccc(O)c1)C2)CC12CC3CC(CC(C3)C1)C2 | < 40 | – | –
42 | NC(=O)c1cccc([C@H]2C[C@H]3CC[C@@H](C2)N3CCN(CC2CCC(C(F)(F)F)CC2)C(=O)[C@@H](O)CO)c1 (some centres not stated) | < 40 | – | –

Row | Structure (SMILES) | Intrinsic activity [1] [%] | pKi [2] | pKi [3]
43 | NC(=O)c1cccc([C@H]2C[C@H]3CC[C@@H](C2)N3CCN(C[C@H]2CC[C@H](O)CC2)C(=O)[C@@H](O)CO)c1 | < 40 | – | –
44 | O=C(C(O)CCc1ccccc1)N(CCN1[C@@H]2CC[C@H]1C[C@@H](c1cccc(O)c1)C2)CC1CCCCC1 (some centres not stated) | < 40 | – | –
45 | NC(=O)c1cccc([C@H]2C[C@H]3CC[C@@H](C2)N3CCN(CC2CCC(F)(F)CC2)C(=O)[C@@H](O)CO)c1 | < 40 | – | –
46 | CCC(C)NC(=O)N(CCN1[C@@H]2CC[C@H]1C[C@@H](c1cccc(C(N)=O)c1)C2)CC1CCCCC1 (some centres not stated) | < 40 | – | –
47 | NC(=O)c1cccc([C@H]2C[C@H]3CC[C@@H](C2)N3CCN(CC2CCC(C(F)(F)F)CC2)C(=O)CO)c1 (some centres not stated) | < 40 | – | –
48 | CC(C)(C)NCC[C@H](O)C(=O)N(CCN1[C@@H]2CC[C@H]1C[C@@H](c1cccc(C(N)=O)c1)C2)CC1CCCCC1 | < 40 | – | –
49 | O=C(O)c1cccc([C@H]2C[C@H]3CC[C@@H](C2)N3CCN(CC2CCCCC2)C(=O)[C@@H](O)CO)c1 | < 40 | – | –
50 | O=C(O)C(O)CC(=O)N(CCN1[C@@H]2CC[C@H]1C[C@@H](c1cccc(O)c1)C2)Cc1cccc(F)c1 (some centres not stated) | < 40 | – | –
51 | NC(=O)c1cccc([C@H]2C[C@H]3CC[C@@H](C2)N3CCN(CC23CC4CC(CC(C4)C2)C3)C(=O)CO)c1 | < 40 | – | –
52 | CC(=O)N(CCN1[C@@H]2CC[C@H]1C[C@@H](c1cccc(C(N)=O)c1)C2)CC12CC3CC(CC(C3)C1)C2 | < 40 | – | –
53 | O=C(CO)N(CCN1[C@@H]2CC[C@H]1C[C@@H](c1cccc(O)c1)C2)Cc1ccccc1 | – | 7 to 10.5 | 7 to 10.5
54 | NC(=O)c1cccc([C@H]2C[C@H]3CC[C@@H](C2)N3CCN(CC23CC4CC(CC(C4)C2)C3)C(=O)CCC(=O)O)c1 | < 40 | – | –
55 | NC(=O)c1cccc([C@H]2C[C@H]3CC[C@@H](C2)N3CCN(CC2CCC(F)CC2)C(=O)[C@@H](O)CO)c1 (some centres not stated) | < 40 | – | –
56 | C[C@@H](O)[C@H](O)C(=O)N(CCN1[C@@H]2CC[C@H]1C[C@@H](c1cccc(C(N)=O)c1)C2)Cc1ccccc1 | < 40 | – | –
57 | CC1CCC(CN(CCN2[C@@H]3CC[C@H]2C[C@@H](c2cccc(C(N)=O)c2)C3)C(=O)[C@@H](O)CO)CC1 (some centres not stated) | < 40 | – | –
58 | NC(=O)c1cccc([C@H]2C[C@H]3CC[C@@H](C2)N3CCN(Cc2ccccc2)C(=O)[C@H](O)CO)c1 | < 40 | – | –
59 | CC(O)C(=O)N(CCN1[C@@H]2CC[C@H]1C[C@@H](c1cccc(C(N)=O)c1)C2)Cc1ccccc1 (some centres not stated) | < 40 | – | –
60 | NC(=O)c1cccc([C@H]2C[C@H]3CC[C@@H](C2)N3CCN(CC2CCC(F)CC2)C(=O)CO)c1 (some centres not stated) | < 40 | – | –
61 | CN(C)CC(O)C(=O)N(CCN1[C@@H]2CC[C@H]1C[C@@H](c1cccc(C(N)=O)c1)C2)CC1CCCCC1 (some centres not stated) | < 40 | – | –
